Counter-ions that a name gives are not always drawn.

Assay [1] has as its target T1, adenosine A2A receptor (Rattus norvegicus, UniProt P30543).
T1 construct: from tissue; host or cells: rat corpus striatum, washed membrane suspension
The assay is described as follows: Adenosine receptor binding activity (adenosine A2A receptor binding test), 3H-CGS 21680 binding. The note with it: 2 h, read-out: A2A receptor inhibition ratio (%); for inhibition at 0.1 µM: 10^-7 M; for inhibition at 0.01 µM: 10^-8 M. How it is done: Adenosine receptor binding activity (adenosine A2A receptor binding test) This test was carried out by slightly modifying the method of Bruns et al. [Molecular Pharmacology, 29: 331 (1986)].
Corpus striatum of a rat was suspended in an ice-cooled 50 mM tris(hydroxymethyl)aminomethane hydrochloride (hereinafter referred to as "Tris-HCl") buffer (pH 7.7) using Polytron Homogenizer (manufactured by Kinematica Co.). The suspension was centrifuged (50,000×g, 10 minutes), and the obtained precipitate was re-suspended in the same amount of 50 mM Tris-HCl buffer. The suspension was centrifuged under the same conditions, and the final precipitate was suspended in 50 mM Tris-HCl [containing 10 mM magnesium chloride and 0.02 unit/mg tissue of adenosine deaminase (manufactured by Sigma Co.)] to give a tissue concentration of 5 mg (wet weight)/ml.
To 1 ml of the tissue suspension thus prepared were added 50 μl of tritium-labeled CGS 21680 {^3 H-2-[p-(2-carboxyethyl)phenethylamino]-5'-N-ethylcarboxamido)adenosine: 40 Ci/mmol; manufactured by New England Nuclear Co.[The Journal of Pharmacology and Experimental Therapeutics, 251: 888 (1989)]} (final concentration:4.0 nM) and 50 μl of a test compound. The resulting mixture was allowed to stand for 120 minutes at 25° C., and then rapidly filtered by suction through a glass fiber filter (GF/C, manufactured by Whatman Co.) The filter was immediately washed three times with […] of an ice-cooled 50 mM Tris-HCl buffer, and transferred to a vial, a scintillator (EX-H , manufactured by Wako Pure Chemical Industries, Ltd.) was added thereto, and the radioactivity on the filter was determined with a liquid scintillation counter (manufactured by Packard Instrument Co.) […]
The inhibition ratio of the test compound against the A2A receptor binding (^3 H-CGS 21680 binding) was calculated by the following equation:
Inhibition ratio (%)={1-(Amount of the binding in the presence of the test compound-Amount of the nonspecific binding)/(Amount of the total binding-Amount of the nonspecific binding)}×100
(Note) Amount of the total binding means the amount of radioactivity of ^3 H-CGS 21680 bound in the absence of the test compound. Amount of the nonspecific binding means the amount of radioactivity of ^3 H-CGS 21680 bound in the presence of 100 μM cyclopentyladenosine (CPA, manufactured by Sigma Co.) Amount of the binding in the presence of the test compound means the amount of radioactivity of ^3 H-CGS 21680 bound in the presence of the test compound at various levels of concentrations.

For assay [2], the system named is CGS 21680-induced catalepsy in mice. As to the kind of experiment: Activity on CGS 21680-induced Catalepsy. It is filed as in vivo, mouse (male ddY). The note with it: 10 mg/kg oral; for Total score (catalepsy): 10 animals, maximum 50 points, control 48; for Number of Animals showing remission: catalepsy score 4 points or less in 10 cases; for inhibition in vivo at 10 mg/kg: Mus musculus, CGS 21680-induced catalepsy, read-out: Remission ratio (%). How it is done:
Activity on CGS 21680-induced Catalepsy
Parkinson's disease is motor deficit based on the degeneration and cell death of the nigrostriatal dopaminergic neuron. […] [Journal of Neuroscience, 16: 605 (1996)]. Accordingly, it is considered that adenosine A2A receptor agonists positively regulate the output of the striopallidal GABAergic neurons and, as a result, catalepsy is induced by the administration of CGS 21680.
This test was carried out using 10 animals per group of male ddY mice of 5 week age (22 to 25 g in body weight, Japan SLC). CGS 21680 (manufactured by RBI) was dissolved in a physiological saline (manufactured by Otsuka Pharmaceutical), and 10 μg/20 μl of the solution was injected into mouse intracerebro-ventricle. Test compounds were used by suspending them in distilled water containing 0.3% of polyoxyethylene(20)sorbitan monooleate (hereinafter referred to as "Tween 80") (manufactured by Otsuka Pharmaceutical). […] One hour after the administration of the test compound, only forelimbs or only hindlimbs of each animal were laid on a vertically arranged stand made of acryl, having a size of 4.5 cm in height and 1.0 cm in width, to measure catalepsy symptoms. All of the compounds were administered orally in a dose of 10 mg/kg.
The effect was judged by total catalepsy scores of 10 animals in one group (the maximum is 50 points). When the total score was 40 points or less, the activity of drugs was judged positive. The number of animals showing remission of catalepsy was expressed by the number of cases in which the catalepsy score was 4 points or less in 10 cases. The catalepsy remission ratio was expressed as the percentage of the total score in the test compound-administered group to the total score in the control group.

T1 sequence (P30543 whole entry): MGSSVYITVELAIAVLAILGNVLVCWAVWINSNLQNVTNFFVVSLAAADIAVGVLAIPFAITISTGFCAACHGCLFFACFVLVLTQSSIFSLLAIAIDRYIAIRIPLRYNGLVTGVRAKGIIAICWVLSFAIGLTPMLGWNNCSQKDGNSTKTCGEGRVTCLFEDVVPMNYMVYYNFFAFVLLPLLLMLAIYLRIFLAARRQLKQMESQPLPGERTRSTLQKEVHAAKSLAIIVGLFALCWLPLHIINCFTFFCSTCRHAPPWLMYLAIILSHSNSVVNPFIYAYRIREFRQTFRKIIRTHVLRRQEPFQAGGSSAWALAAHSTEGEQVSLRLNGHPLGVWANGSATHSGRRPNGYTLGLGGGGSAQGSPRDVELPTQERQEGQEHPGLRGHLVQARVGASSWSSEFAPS

On to `Nc1nc(N2CCN(Cc3cnns3)CC2)cc2nc(-c3ccco3)nn12` [Compound 144, 5-Amino-2-(2-furyl)-7-(4-(1,2,3-thiadiazol-5-ylmethyl)piperazinyl)[1,2,4]triazolo[1,5-c]pyrimidine], for which the inhibition at 0.1 µM in assay [1] came out at 58%. Further, in assay [2], the “Total score (catalepsy)” value was determined as 9, the “Number of Animals showing remission” value is 9 and the inhibition in vivo at 10 mg/kg was 80%.

As for `COc1cc(CN2CCN(c3cc4nc(-c5ccco5)nn4c(N)n3)CC2)cc(OC)c1OC` [Compound 77, 5-Amino-2-(2-furyl)-7-(4-(3,4,5-trimethoxybenzyl)piperazinyl)[1,2,4]triazolo[1,5-c]pyrimidine], in assay [1], the inhibition at 0.1 µM amounted to 77%. In addition, in assay [2], the “Total score (catalepsy)” value amounted to 21, the “Number of Animals showing remission” value was 9 and the inhibition in vivo at 10 mg/kg was determined as 54%.

Consider `Nc1nc(N2CCN(CCOc3ccccc3)CC2)cc2nc(-c3ccco3)nn12` [Compound 90, 5-Amino-2-(2-furyl)-7-(4-(2-phenoxyethyl)piperazinyl)[1,2,4]triazolo[1,5-c]pyrimidine hydrochloride], for which, in assay [1], the inhibition at 0.1 µM was 82%. For the same compound, in assay [2], the “Total score (catalepsy)” value stood at 12, the “Number of Animals showing remission” value is given as 9 and the inhibition in vivo at 10 mg/kg turned out to be 80%. For `CC(c1ccccc1)N1CCN(c2cc3nc(-c4ccco4)nn3c(N)n2)CC1` (stereo not drawn) [Compound 73, 5-Amino-2-(2-furyl)-7-[4-(1-phenylethyl)piperazinyl][1,2,4]triazolo[1,5-c]pyrimidine], in assay [1], the inhibition at 0.1 µM is 86% and the inhibition at 0.01 µM worked out at 51%.

For `C[C@@H]1CN(c2cc3nc(-c4ccco4)nn3c(N)n2)C[C@H](C)N1CCCc1ccccc1` [Compound 119, 5-Amino-7-(cis-3,5-dimethyl-4-(3-phenylpropyl)piperazinyl)-2-(2-furyl)[1,2,4]triazolo[1,5-c]pyrimidine], the inhibition at 0.1 µM in assay [1] was 51%.

Consider `Nc1nc(N2CCN(Cc3cccnc3)CC2)cc2nc(-c3ccco3)nn12` [Compound 70, 5-Amino-2-(2-furyl)-7-[4-(3-picolyl)piperazinyl][1,2,4]triazolo[1,5-c]pyrimidine], for which, in assay [1], the inhibition at 0.1 µM was determined as 66% and the inhibition at 0.01 µM worked out at 17%. For `Nc1nc(N2CCN(Cc3cccc(Cl)c3)CC2)cc2nc(-c3ccco3)nn12` [Compound 69, 5-Amino-7-[4-(3-chlorobenzyl)piperazinyl]-2-(2-furyl)[1,2,4]triazolo[1,5-c]pyrimidine], in assay [1], the inhibition at 0.1 µM is 62% and the inhibition at 0.01 µM turned out to be 44%.

`COc1ccc(CN2CCN(c3cc4nc(-c5ccco5)nn4c(N)n3)CC2)cc1OC` [Compound 67, 5-Amino-7-[4-(3,4-dimethoxybenzyl)piperazinyl]-2-(2-furyl)[1,2,4]triazolo[1,5-c]pyrimidine]: in assay [1], the inhibition at 0.1 µM came out at 77% and the inhibition at 0.01 µM was determined as 39%.

With `COc1cc(OC)cc(Oc2cc3nc(-c4ccco4)nn3c(N)n2)c1` [Compound 33, 5-Amino-7-(3,5-dimethoxyphenoxy)-2-(2-furyl)[1,2,4]triazolo[1,5-c]pyrimidine], in assay [1], the inhibition at 0.1 µM was 86% and the inhibition at 0.01 µM was 46%. As for `Nc1nc(N2CCN(Cc3ccccc3Cl)CC2)cc2nc(-c3ccco3)nn12` [Compound 68, 5-Amino-7-[4-(2-chlorobenzyl)piperazinyl]-2-(2-furyl)[1,2,4]triazolo[1,5-c]pyrimidine], in assay [1], the inhibition at 0.1 µM amounted to 90% and the inhibition at 0.01 µM came to 59%. Take `Nc1nc(N2CCN(c3nc4ccccc4o3)CC2)cc2nc(-c3ccco3)nn12` [Compound 94, 5-Amino-7-(4-(2-benzoxazolyl)piperazinyl)-2-(2-furyl)[1,2,4]triazolo[1,5-c]pyrimidine]: in assay [1], the inhibition at 0.1 µM worked out at 37%. As for `CC(CO)N1CCN(c2cc3nc(-c4ccco4)nn3c(N)n2)CC1` (racemic) [Compound 111, (±)-5-Amino-2-(2-furyl)-7-(4-((2-hydroxy-1-methyl)ethyl)piperazinyl)[1,2,4]triazolo[1,5-c]pyrimidine], the inhibition at 0.1 µM in assay [1] was 52%.

For the compound `COc1ccc(CCN2CCN(c3cc4nc(-c5ccco5)nn4c(N)n3)CC2)cc1OC` [Compound 85, 5-Amino-7-(4-(2-(3,4-dimethoxyphenyl)ethyl)piperazinyl)-2-(2-furyl)[1,2,4]triazolo[1,5-c]pyrimidine], in assay [1], the inhibition at 0.1 µM came out at 80%.

For `Cc1ccc(CSc2cc3nc(-c4ccco4)nn3c(N)n2)cc1` [Compound 186, 5-Amino-2-(2-furyl)-7-(4-methylbenzylthio)[1,2,4]triazolo[1,5-c]pyrimidine], the inhibition at 0.1 µM in assay [1] is 52%.

Take `Nc1nc(SCc2ccccn2)cc2nc(-c3ccco3)nn12` [Compound 182, 5-Amino-2-(2-furyl)-7-(2-picolylthio)[1,2,4]triazolo[1,5-c]pyrimidine]: in assay [1], the inhibition at 0.1 µM amounted to 82%. Turning to `COc1ccc(CNc2nc(Sc3ccccc3)cc3nc(-c4ccco4)nn23)cc1OC` [Compound 10, 5-(3,4-Dimethoxybenzylamino)-2-(2-furyl)-7-phenylthio[1,2,4]triazolo[1,5-c]pyrimidine], in assay [1], the inhibition at 0.1 µM came to 54% and the inhibition at 0.01 µM was 16%.

As to `Nc1nc(SCc2ccccc2[N+](=O)[O-])cc2nc(-c3ccco3)nn12` [Compound 194, 5-Amino-2-(2-furyl)-7-(2-nitrobenzylthio)[1,2,4]triazolo[1,5-c]pyrimidine], the inhibition at 0.1 µM in assay [1] came to 75%. For `Nc1nc(N2CCN(CC3CCCCC3)CC2)cc2nc(-c3ccco3)nn12` [Compound 72, 5-Amino-7-(4-cyclohexylmethylpiperazinyl)-2-(2-furyl)[1,2,4]triazolo[1,5-c]pyrimidine], in assay [1], the inhibition at 0.1 µM was 66% and the inhibition at 0.01 µM amounted to 10%. Take `Nc1nc(N2CCN(Cc3ccncc3)CC2)cc2nc(-c3ccco3)nn12` [Compound 71, 5-Amino-2-(2-furyl)-7-[4-(4-picolyl)piperazinyl][1,2,4]triazolo[1,5-c]pyrimidine]: in assay [1], the inhibition at 0.1 µM is 73% and the inhibition at 0.01 µM was determined as 29%.

Regarding `Nc1nc(N2CCN(CCCOCc3ccccc3)CC2)cc2nc(-c3ccco3)nn12` [Compound 102, 5-Amino-7-(4-(3-benzyloxypropyl)piperazinyl)-2-(2-furyl)[1,2,4]triazolo[1,5-c]pyrimidine hydrochloride], in assay [1], the inhibition at 0.1 µM came to 72%.

In the case of `Nc1nc(N2CCN(Cc3ccc4c(c3)OCO4)CC2)cc2nc(-c3ccco3)nn12` [Compound 66, 5-Amino-2-(2-furyl)-7-(4-piperonylpiperazinyl)[1,2,4]triazolo[1,5-c]pyrimidine], in assay [1], the inhibition at 0.1 µM was 79% and the inhibition at 0.01 µM was determined as 20%. Regarding `Nc1nc(SCc2ccccc2)cc2nc(-c3ccco3)nn12` [Compound 183, 5-Amino-7-benzylthio-2-(2-furyl)[1,2,4]triazolo[1,5-c]pyrimidine], in assay [1], the inhibition at 0.1 µM came to 82%. As for `COCCN1[C@H](C)CN(c2cc3nc(-c4ccco4)nn3c(N)n2)C[C@@H]1C` [Compound 117, 5-Amino-7-(cis-3,5-dimethyl-4-(2-methoxyethyl)piperazinyl)-2-(2-furyl)[1,2,4]triazolo[1,5-c]pyrimidine], the inhibition at 0.1 µM in assay [1] was determined as 38%.

The values above are taken from patent US6222035A, “[1,2,4] triazolo [1,5-C] pyrimidine derivatives” (Kyowa Hakko Kogyo Co., Ltd., priority 1997, dated 2001).
